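48-hour exposure; five concentrations; linearly interpolated endpoints. GI50: concentration for 50% inhibition of growth. Definition used: TGI = concentration required for complete inhibition of growth.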
Assays:
Experiment in all cases: inhibition of tumour cell growth, NCI panel, 48 h
CCRF-CEM leukemia = system: CCRF-CEM leukemia
NCI-H460 lung = system: NCI-H460 lung
MALME-3M melanoma = system: MALME-3M melanoma
IGROV1 ovarian = system: IGROV1 ovarian
HCT-15 colon = system: HCT-15 colon
LOX IMVI melanoma = system: LOX IMVI melanoma
RXF 393 renal = system: RXF 393 renal
RPMI-8226 leukemia = system: RPMI-8226 leukemia
UACC-257 melanoma = system: UACC-257 melanoma
SK-OV-3 ovarian = system: SK-OV-3 ovarian
SR leukemia = system: SR leukemia
SNB-75 CNS = system: SNB-75 CNS
CAKI-1 renal = system: CAKI-1 renal
NCI/ADR-RES ovarian = system: NCI/ADR-RES ovarian
UACC-62 melanoma = system: UACC-62 melanoma
DU-145 prostate = system: DU-145 prostate
SK-MEL-5 melanoma = system: SK-MEL-5 melanoma
UO-31 renal = system: UO-31 renal
OVCAR-8 ovarian = system: OVCAR-8 ovarian
A549 NSCLC = system: A549 NSCLC
NCI-H226 lung = system: NCI-H226 lung
786-0 renal = system: 786-0 renal
SF-268 CNS = system: SF-268 CNS
ACHN renal = system: ACHN renal
T-47D breast = system: T-47D breast
MCF7 breast = system: MCF7 breast
HCC-2998 colon = system: HCC-2998 colon
HOP-62 NSCLC = system: HOP-62 NSCLC
NCI-H23 lung = system: NCI-H23 lung
A498 renal = system: A498 renal
SN12C renal = system: SN12C renal
KM12 colon = system: KM12 colon
HCT-116 colon = system: HCT-116 colon
SW-620 colon = system: SW-620 colon
U251 CNS = system: U251 CNS
EKVX NSCLC = system: EKVX NSCLC
OVCAR-3 ovarian = system: OVCAR-3 ovarian
SF-295 CNS = system: SF-295 CNS
COLO 205 colon = system: COLO 205 colon
MOLT-4 leukemia = system: MOLT-4 leukemia
K-562 leukemia = system: K-562 leukemia
BT-549 breast = system: BT-549 breast
SF-539 CNS = system: SF-539 CNS
HS 578T breast = system: HS 578T breast
MDA-MB-435 = system: MDA-MB-435
HT29 colon = system: HT29 colon
M14 melanoma = system: M14 melanoma
HL-60(TB) leukemia = system: HL-60(TB) leukemia
TK-10 renal = system: TK-10 renal
SK-MEL-28 melanoma = system: SK-MEL-28 melanoma
SNB-19 CNS = system: SNB-19 CNS
SK-MEL-2 melanoma = system: SK-MEL-2 melanoma
PC-3 prostate = system: PC-3 prostate
MDA-MB-231 breast = system: MDA-MB-231 breast
OVCAR-5 ovarian = system: OVCAR-5 ovarian
OVCAR-4 ovarian = system: OVCAR-4 ovarian
HOP-92 NSCLC = system: HOP-92 NSCLC
NCI-H522 lung = system: NCI-H522 lung

## CN(C)c1ccc2nc3ccc(=[N+](C)C)cc-3oc2c1
CCRF-CEM leukemia
  GI50: 1210 nM
  TGI: 32.2 µM
NCI-H460 lung
  GI50: 2820 nM
  TGI: > 100000 nM
MALME-3M melanoma
  GI50: 1.67 µM
  TGI: 4.13 µM
IGROV1 ovarian
  GI50: 1860 nM
  TGI: 5.01 µM
HCT-15 colon
  GI50: 3.48 µM
  TGI: > 100 µM
LOX IMVI melanoma
  GI50: 2320 nM
  TGI: 9.28 µM
RXF 393 renal
  GI50: 10.6 µM
  TGI: 50.4 µM
RPMI-8226 leukemia
  GI50: 684 nM
  TGI: 21 µM
UACC-257 melanoma
  GI50: 0.697 µM
  TGI: 3.34 µM
SK-OV-3 ovarian
  GI50: 6.65 µM
  TGI: 45.2 µM
SR leukemia
  GI50: 2060 nM
  TGI: 23.8 µM
SNB-75 CNS
  GI50: 2630 nM
  TGI: 17.1 µM
CAKI-1 renal
  GI50: 5.92 µM
  TGI: 57.6 µM
NCI/ADR-RES ovarian
  GI50: 12.1 µM
  TGI: 97.9 µM
UACC-62 melanoma
  GI50: 2320 nM
  TGI: 19.2 µM
DU-145 prostate
  GI50: 5.71 µM
  TGI: 49.4 µM
SK-MEL-5 melanoma
  GI50: 470 nM
  TGI: 1.65 µM
UO-31 renal
  GI50: 12.8 µM
  TGI: 89.3 µM
OVCAR-8 ovarian
  GI50: 2.13 µM
  TGI: 7.36 µM
A549 NSCLC
  GI50: 2910 nM
  TGI: 84.1 µM
NCI-H226 lung
  GI50: 2.1 µM
  TGI: 6.76 µM
786-0 renal
  GI50: 16.5 µM
  TGI: 90.9 µM
SF-268 CNS
  GI50: 1590 nM
  TGI: 4.64 µM
ACHN renal
  GI50: 7.28 µM
  TGI: 52.4 µM
T-47D breast
  GI50: 582 nM
  TGI: 6.59 µM
MCF7 breast
  GI50: 0.368 µM
  TGI: 2.3 µM
HCC-2998 colon
  GI50: 3560 nM
  TGI: > 100 µM
HOP-62 NSCLC
  GI50: 3.58 µM
  TGI: 50.5 µM
NCI-H23 lung
  GI50: 788 nM
  TGI: 5.6 µM
A498 renal
  GI50: 13.7 µM
  TGI: 41.9 µM
SN12C renal
  GI50: 892 nM
  TGI: 3.5 µM
KM12 colon
  GI50: 1180 nM
  TGI: > 100 µM
HCT-116 colon
  GI50: 892 nM
  TGI: 12.1 µM
SW-620 colon
  GI50: 1740 nM
  TGI: > 100 µM
U251 CNS
  GI50: 725 nM
  TGI: 4.8 µM
EKVX NSCLC
  GI50: 636 nM
  TGI: 6.76 µM
OVCAR-3 ovarian
  GI50: 0.4 µM
  TGI: 5.09 µM
SF-295 CNS
  GI50: 3740 nM
  TGI: 22.5 µM
COLO 205 colon
  GI50: 391 nM
  TGI: 1.68 µM
MOLT-4 leukemia
  GI50: 1760 nM
  TGI: 5.04 µM
K-562 leukemia
  GI50: 1580 nM
  TGI: 71.9 µM
BT-549 breast
  GI50: 11.2 µM
  TGI: 74.2 µM
SF-539 CNS
  GI50: 707 nM
  TGI: 15.4 µM
HS 578T breast
  GI50: 15.8 µM
  TGI: 64 µM
MDA-MB-435
  GI50: 2.73 µM
  TGI: 15.8 µM
HT29 colon
  GI50: 3.38 µM
  TGI: 29.3 µM
M14 melanoma
  GI50: 959 nM
  TGI: 3.77 µM
HL-60(TB) leukemia
  GI50: 269 nM
  TGI: 1200 nM
TK-10 renal
  GI50: 17.2 µM
  TGI: 57.2 µM
SK-MEL-28 melanoma
  GI50: 5.72 µM
  TGI: 45.7 µM
SNB-19 CNS
  GI50: 2490 nM
  TGI: > 100 µM
SK-MEL-2 melanoma
  GI50: 2380 nM
  TGI: 11.1 µM
PC-3 prostate
  GI50: 520 nM
  TGI: > 100 µM

## C[C@]12CC[C@H]3[C@@H](CCC4=CC(=O)CC[C@@H]43)[C@@H]1CC[C@@H]2OC(=O)N(CCCl)N=O
CCRF-CEM leukemia
  GI50: 1450 nM
  TGI: > 35.4 µM
NCI-H460 lung
  GI50: 70.2 nM
  TGI: 2450 nM
MALME-3M melanoma
  GI50: 11.3 µM
  TGI: 28.9 µM
IGROV1 ovarian
  GI50: 172 nM
  TGI: 15.8 µM
HCT-15 colon
  GI50: 8.45 µM
  TGI: 31.3 µM
LOX IMVI melanoma
  GI50: 1100 nM
  TGI: 23.9 µM
MDA-MB-231 breast
  GI50: 14.2 µM
  TGI: 37.9 µM
OVCAR-5 ovarian
  GI50: 20.8 µM
  TGI: 49.9 µM
RPMI-8226 leukemia
  GI50: 983 nM
UACC-257 melanoma
  GI50: 10.7 µM
  TGI: 24.8 µM
SK-OV-3 ovarian
  GI50: 2.77 µM
  TGI: 30 µM
SR leukemia
  GI50: < 38.1 nM
SNB-75 CNS
  GI50: 317 nM
  TGI: 16.4 µM
CAKI-1 renal
  GI50: 0.51 µM
  TGI: 27.6 µM
NCI/ADR-RES ovarian
  GI50: 2.96 µM
  TGI: 31.9 µM
UACC-62 melanoma
  GI50: 413 nM
  TGI: 18.1 µM
DU-145 prostate
  GI50: 0.433 µM
  TGI: 4.41 µM
OVCAR-4 ovarian
  GI50: 10.8 µM
  TGI: 31.2 µM
SK-MEL-5 melanoma
  GI50: 1990 nM
  TGI: 16.1 µM
UO-31 renal
  GI50: 0.837 µM
  TGI: 14.1 µM
OVCAR-8 ovarian
  GI50: 5.91 µM
  TGI: 51.9 µM
A549 NSCLC
  GI50: 393 nM
  TGI: 14.8 µM
NCI-H226 lung
  GI50: 14 µM
  TGI: 34.1 µM
786-0 renal
  GI50: 0.0723 µM
  TGI: 4.82 µM
SF-268 CNS
  GI50: 167 nM
  TGI: 17.6 µM
ACHN renal
  GI50: 0.359 µM
  TGI: > 37.7 µM
T-47D breast
  GI50: 3520 nM
  TGI: 29.3 µM
MCF7 breast
  GI50: 7.07 µM
  TGI: 29.8 µM
HCC-2998 colon
  GI50: 2200 nM
  TGI: 12.4 µM
HOP-62 NSCLC
  GI50: 3.17 µM
  TGI: 26.1 µM
NCI-H23 lung
  GI50: 5100 nM
  TGI: 33.7 µM
A498 renal
  GI50: 1.9 µM
  TGI: 5.51 µM
HOP-92 NSCLC
  GI50: 391 nM
  TGI: 17.5 µM
SN12C renal
  GI50: 1690 nM
  TGI: 21.4 µM
KM12 colon
  GI50: 2950 nM
  TGI: 19.2 µM
HCT-116 colon
  GI50: 3920 nM
  TGI: 19.2 µM
SW-620 colon
  GI50: 1750 nM
  TGI: 26.7 µM
U251 CNS
  GI50: 346 nM
  TGI: 17.4 µM
EKVX NSCLC
  GI50: 3670 nM
  TGI: 36.6 µM
OVCAR-3 ovarian
  GI50: 7.83 µM
  TGI: 21.8 µM
SF-295 CNS
  GI50: 121 nM
  TGI: > 44.6 µM
COLO 205 colon
  GI50: 3100 nM
  TGI: 20 µM
NCI-H522 lung
  GI50: 5.79 µM
  TGI: 29 µM
MOLT-4 leukemia
  GI50: 716 nM
  TGI: > 32.6 µM
K-562 leukemia
  GI50: 2900 nM
  TGI: 56 µM
BT-549 breast
  GI50: 11.2 µM
  TGI: 26 µM
SF-539 CNS
  GI50: 95.9 nM
  TGI: 10.6 µM
HS 578T breast
  GI50: 5.2 µM
  TGI: 34.2 µM
MDA-MB-435
  GI50: 3.54 µM
  TGI: 32.5 µM
HT29 colon
  GI50: 3.7 µM
  TGI: 13.7 µM
M14 melanoma
  GI50: 4270 nM
  TGI: 21.4 µM
HL-60(TB) leukemia
  GI50: 280 nM
  TGI: 2150 nM
TK-10 renal
  GI50: 11.1 µM
  TGI: 43.8 µM
SK-MEL-28 melanoma
  GI50: 11.6 µM
  TGI: 26.1 µM
SNB-19 CNS
  GI50: 265 nM
  TGI: 24.3 µM
SK-MEL-2 melanoma
  GI50: 3070 nM
  TGI: 28.6 µM
PC-3 prostate
  GI50: 5020 nM
  TGI: > 48.1 µM

Reference: PubChem BioAssay (NCI)
